Laboratory results: patent US8163906B2, “Dihydroquinone and dihydronaphthridine inhibitors of JNK” (Roche Palo Alto, LLC, priority 2007, dated 2012)
Where two headings read alike, the source gives them in different places.

Legend:
Human JNK2α2 = Human JNK2α2 (Homo sapiens, UniProt P45984); experiment: JNK assay in vitro, phosphorylation of GST-ATF2 with [γ-33P] ATP (JNK2); assay type: biochemical; conditions: ATP at Km (8 μM), 1 μM ATF2, 30° C. 30 min
Experimental: (§1) JNK activity was measured by phosphorylation of GST-ATF2 (19-96) with [γ-^33P] ATP. […] Human JNK2α2 assay contains 1 nM enzyme, 1 μM ATF2, 8 μM ATP with 1 uCi [γ-^33P] ATP. Human JNK1α1 assay contains 2 nM enzyme, 1 μM ATF2, 6 μM ATP with 1 μCi [γ-^33P] ATP. […] ATP. The enzyme assay was carried out in the presence or absence of several compound concentrations. JNK and compound were pre-incubated for 10 min., followed by initiation of the enzymatic reaction by adding ATP and the substrate. The reaction mixture was incubated at 30° C. for 30 min. […] The incorporation of ^33P into ATF2 was quantified on a microplate scintillation counter (Packard Topcount). Compound inhibition potency on JNK was measured by IC50 value generated from ten concentration inhibition curves fitted into the 3-parameter model: % inhibition=Maximum/(1+(IC50/[Inhibitor])^slope). Data were analyzed on Microsoft Excel for parameter estimation.

Human JNK1α1 = Human JNK1α1 (Homo sapiens, UniProt P45983); experiment: JNK assay in vitro, phosphorylation of GST-ATF2 with [γ-33P] ATP (JNK1); assay type: biochemical; conditions: 1 μM ATF2, 30° C. 30 min
Sequence of Human JNK1α1 (P45983 1-384 isoform P45983-2): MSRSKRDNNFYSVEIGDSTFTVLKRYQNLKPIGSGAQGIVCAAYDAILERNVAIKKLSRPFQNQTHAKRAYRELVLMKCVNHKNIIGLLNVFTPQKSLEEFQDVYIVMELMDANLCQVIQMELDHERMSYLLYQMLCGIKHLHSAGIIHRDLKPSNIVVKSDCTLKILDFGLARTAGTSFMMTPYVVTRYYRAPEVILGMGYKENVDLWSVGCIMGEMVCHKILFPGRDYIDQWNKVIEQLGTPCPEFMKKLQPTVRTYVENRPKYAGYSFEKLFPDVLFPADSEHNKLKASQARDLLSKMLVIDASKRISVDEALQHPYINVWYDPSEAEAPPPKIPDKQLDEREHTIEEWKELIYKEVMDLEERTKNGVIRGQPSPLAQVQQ
Experimental: as §1

[1] = system: TNFα-induced IL-6 production; experiment: Rat in vivo TNFα-induced IL-6 production assay, subcutaneous; design: species or system Female Wistar-Han rats; conditions: plasma 90 min after TNF-α challenge
Experimental: (§2) Female Wistar-Han rats procured from Charles River Laboratories were allowed to acclimate for one week prior to use and achieve an approximate body weight of 114-132 g. Rats were administered compound 18 (N=8 per dose) subcutaneously 30 min prior to an intra-peritoneal challenge of 0.5 μg recombinant rat TNF-α (Biosource). Blood was collected via cardiocentesis 90 min after TNF-α challenge. Plasma was prepared using lithium heparin separation tubes (BD microtainer) and frozen at −80° C. until analyzed. IL-6 levels were determined using a rat specific IL-6 ELISA kit (Biosource). The percent inhibition and ED50 values (calculated as the dose of compound at which […] is 50% of the control value) were determined.

[2] = system: TNFα-induced IL-6 production; experiment: Rat in vivo TNFα-induced IL-6 production assay, oral gavage; design: species or system Female Wistar-Han rats; conditions: 30 min prior to TNF-α i.p. challenge, plasma 90 min after challenge
Experimental: as §2, with “101-130” for “114-132”, “administered test” for “administered”, “compound” for “compound 18”, “compound) via oral gavage” for “dose) subcutaneously”, “intraperitoneal” for “intra-peritoneal”

[3] = ATP at Km (6 μM), read-out: IC50 vs. JNK1
[4] = IC50 vs. JNK1, ATP at Km (6 μM)

Sequence of Human JNK2α2 (P45984 whole entry): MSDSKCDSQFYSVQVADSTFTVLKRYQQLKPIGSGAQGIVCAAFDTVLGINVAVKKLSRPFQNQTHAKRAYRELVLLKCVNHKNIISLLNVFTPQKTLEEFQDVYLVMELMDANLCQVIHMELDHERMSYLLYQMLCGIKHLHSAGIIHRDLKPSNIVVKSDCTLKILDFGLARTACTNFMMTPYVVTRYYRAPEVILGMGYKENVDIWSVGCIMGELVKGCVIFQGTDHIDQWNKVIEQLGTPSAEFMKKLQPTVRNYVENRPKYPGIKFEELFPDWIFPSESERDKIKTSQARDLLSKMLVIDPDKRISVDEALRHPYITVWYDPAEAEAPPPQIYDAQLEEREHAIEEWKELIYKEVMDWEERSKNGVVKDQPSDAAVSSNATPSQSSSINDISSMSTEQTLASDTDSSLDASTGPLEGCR

Q: Which IC50 (Human JNK2α2) does the source give for COC(=O)c1c(Cc2ccc(S(=O)(=O)N3CCC(O)CC3)cc2)c(=O)c2ccc(Cl)cc2n1-c1ccccc1 [Compound 69, 7-Chloro-3-[4-(4-hydroxypiperidine-1-sulfonyl)-benzyl]-4-oxo-1-phenyl-1,4-dihydroquinoline-2-carboxylic acid methyl ester] here?
A: 47 nM

Q: What about the melting point of the same compound?
A: 170 to 171 °C

Q: And the IC50 (Human JNK1α1; [3])?
A: 18.4 nM

Q: With COC(=O)c1c(Cc2ccc(S(=O)(=O)N3CCC(O)CC3)cc2)c(=O)c2ccc(F)cc2n1-c1ccccc1 [Compound 110] as the compound, how does the IC50 (Human JNK2α2) read?
A: 201 nM

Q: What about the melting point of the same compound?
A: 232 to 233 °C

Q: And the IC50 (Human JNK1α1; [3])?
A: 50.2 nM

Q: With COC(=O)c1c(Cc2ccc(S(=O)(=O)NCCO)cc2)c(=O)c2ccc(Cl)cc2n1-c1ccccc1 [Compound 65, 7-chloro-3-[4-(2-hydroxy-ethylsulfamoyl)-benzyl]-4-oxo-1-phenyl-1,4-dihydro-quinoline-2-carboxylic acid methyl ester] as the compound, how does the IC50 (Human JNK2α2) read?
A: 95.7 nM

Q: And the melting point?
A: 191.5 to 193.1 °C

Q: What about the IC50 (Human JNK1α1; [3]) of the same compound?
A: 32.8 nM

Q: Which IC50 (Human JNK2α2) does the source give for COC(=O)c1c(Cc2ccc(S(=O)(=O)N3CCNCC3)cc2)c(=O)c2ccc(Cl)cc2n1-c1ccccc1.Cl [Compound 67, 7-Chloro-4-oxo-1-phenyl-3-[4-(piperazine-1-sulfonyl)-benzyl]-1,4-dihydroquinoline-2-carboxylic acid methyl ester bishydrochloride] here?
A: 48.5 nM

Q: What about the melting point of the same compound?
A: 214 to 215.5 °C

Q: What about the IC50 (Human JNK1α1; [4]) of the same compound?
A: 30.4 nM

Q: Which IC50 (Human JNK2α2) does the source give for COC(=O)c1c(Cc2ccc(S(=O)(=O)C(C)CO)cc2)c(=O)c2ccc(Cl)cc2n1-c1ccccc1 (centres unmarked) [Compound 117] here?
A: 86.7 nM

Q: And the melting point?
A: 175.3 to 180.3 °C

Q: And the IC50 (Human JNK1α1; [3])?
A: 32 nM

Q: Which IC50 (Human JNK2α2) does the source give for COC(=O)c1c(Cc2ccc(S(=O)(=O)N3CC[C@H](O)C3)cc2)c(=O)c2ccc(Cl)cc2n1-c1ccccc1 [Compound 87, 7-Chloro-3-[4-(3-hydroxypyrrolidine-1-sulfonyl)-benzyl]-4-oxo-1-phenyl-1,4-dihydroquinoline-2-carboxylic acid methyl ester] here?
A: 83.2 nM

Q: What about the melting point of the same compound?
A: 135 to 136 °C

Q: And the IC50 (Human JNK1α1; [3])?
A: 33.4 nM

Q: Which results are given for Nc1cccc(-n2c(-c3ncco3)c(Cc3ccccc3)c(=O)c3ccc(Cl)cc32)n1 [Compound 141, 1-(6-amino-pyridin-2-yl)-3-benzyl-7-chloro-2-oxazol-2-yl-1H-quinolin-4-one]?
A: IC50 (Human JNK2α2): 2090 nM; melting point: 279.3 to 282.8 °C; IC50 (Human JNK1α1; [3]): 612 nM

Q: For COC(=O)c1c(Cc2ccc(C(=O)NCCO)cc2)c(=O)c2ccc(Cl)cc2n1-c1ccccc1 [Compound 18, 7-chloro-3-[4-(2-hydroxyethylcarbamoyl)-benzyl]-4-oxo-1-phenyl-1,4-dihydroquinoline-2-carboxylic acid methyl ester], which “IL-6 Inhibition (%)” value ([1]; 0.3 mg/Kg) is on record?
A: 30.01%

Q: And the “IL-6 Inhibition (%)” value ([1]; 1.0 mg/Kg)?
A: 47.83%

Q: And the “IL-6 Inhibition (%)” value ([1]; 3.0 mg/Kg)?
A: 54.85%

Q: What about the “IL-6 Inhibition (%)” value ([1]; 10 mg/Kg) of the same compound?
A: 71.15%

Q: What about the “IL-6 Inhibition (%)” value ([2]; 3 mg/Kg) of the same compound?
A: 53%

Q: What does the source list for CC(=O)c1c(Cc2ccc(S(=O)(=O)N3CCC(O)CC3)cc2)c(=O)c2ccc(Cl)cc2n1-c1ccccc1 [Compound 70, 2-Acetyl-7-chloro-3-[4-(4-hydroxypiperidine-1-sulfonyl)-benzyl]-1-phenyl-1H-quinolin-4-one]?
A: IC50 (Human JNK2α2): 399 nM; melting point: 145.5 to 147.2 °C; IC50 (Human JNK1α1; [3]): 134 nM

Q: Which results are given for COC(=O)c1c(Cc2ccc(S(=O)(=O)N3CCN(C)CC3)cc2)c(=O)c2ccc(Cl)cc2n1-c1ccccc1 [Compound 30, 7-chloro-3-[4-(4-methyl-piperazine-1-sulfonyl)-benzyl]-4-oxo-1-phenyl-1,4-dihydroquinoline-2-carboxylic acid methyl ester]?
A: IC50 (Human JNK2α2): 86.3 nM; melting point: 223.3 to 226.6 °C; IC50 (Human JNK1α1; [3]): 35.5 nM; IL-6 Inhibition (%) ([2]; 30 mg/Kg): 46%

Q: Which IC50 (Human JNK2α2) does the source give for COC(=O)c1c(Cc2ccc(S(=O)(=O)NCC(C)(C)O)cc2)c(=O)c2ccc(Cl)cc2n1-c1ccccc1 [Compound 85, 3-[4-(2-Hydroxy-2-methylpropylsulfonamoyl)benzyl]-4-oxo-7-chloro-1-phenyl-1,4-dihydroquinoline-2-carboxylic acid methyl ester] here?
A: 118 nM

Q: And the melting point?
A: 240 to 242.6 °C

Q: And the IC50 (Human JNK1α1; [3])?
A: 48.1 nM

Q: Which results are given for CCC(=O)c1c(Cc2ccc(S(=O)(=O)N3CCN(C)CC3)cc2)c(=O)c2ccc(Cl)cc2n1-c1ccccc1 [Compound 80, 7-chloro-3-[4-(4-methylpiperazin-1-sulfonyl)benzyl]-1-phenyl-2-propionyl-1H-quinlin-4-one]?
A: IC50 (Human JNK2α2): 477 nM; melting point: > 300 °C; IC50 (Human JNK1α1; [3]): 193 nM

Q: What does the source list for CC(=O)c1c(Cc2ccc(S(=O)(=O)N3CCN(C)CC3)cc2)c(=O)c2ccc(Cl)cc2n1-c1ccccc1 [Compound 72, 2-acetyl-7-chloro-3-[4-(4-methylpiperazine-1-sulfonyl)-benzyl]-1-phenyl-1H-quinolin-4-one]?
A: IC50 (Human JNK2α2): 336 nM; melting point: 206.3 to 208 °C; IC50 (Human JNK1α1; [3]): 154 nM

Q: With COC(=O)c1c(Cc2ccc(S(=O)(=O)N3CCNCC3)cc2)c(=O)c2ccc(Cl)cc2n1-c1ccccc1.O=C(O)C(F)(F)F [Compound 66, 7-chloro-4-oxo-1-phenyl-3-[4-(piperazine-1-sulfonyl)-benzyl]-1,4-dihydro-quinoline-2-carboxylic acid methyl ester trifluoroacetate] as the compound, how does the IC50 (Human JNK2α2) read?
A: 44.5 nM

Q: And the melting point?
A: 203 to 205 °C

Q: What about the IC50 (Human JNK1α1; [4]) of the same compound?
A: 18.1 nM

Q: Which results are given for COC(=O)c1c(Cc2ccc(S(=O)(=O)N(C)C)cc2)c(=O)c2ccc(Cl)cc2n1-c1ccccc1 [Compound 32, 7-Chloro-3-(4-dimethylsulfamoyl-benzyl)-4-oxo-1-phenyl-1,4-dihydroquinoline-2-carboxylic acid methyl ester]?
A: IC50 (Human JNK2α2): 129 nM; melting point: 218.1 to 219.5 °C; IC50 (Human JNK1α1; [3]): 44.5 nM

Q: What does the source list for COC(=O)c1c(Cc2ccc(S(=O)(=O)N3CCN(C(=O)OC(C)(C)C)CC3)cc2)c(=O)c2ccc(Cl)cc2n1-c1ccccc1 [Compound 63, 3-[4-(4-tert-Butoxycarbonyl-piperazine-1-sulfonyl)-benzyl]-7-chloro-4-oxo-1-phenyl-1,4-dihydroquinoline-2-carboxylic acid methyl ester]?
A: IC50 (Human JNK2α2): 212 nM; IC50 (Human JNK1α1; [3]): 98.7 nM

Q: Which results are given for COC(=O)c1c(CN2CCC(N3CCOCC3)CC2)c(=O)c2ccc(F)cc2n1-c1ccccc1 [Compound 135]?
A: IC50 (Human JNK2α2): 2100 nM; melting point: 161 to 163 °C; IC50 (Human JNK1α1; [3]): 250 nM
